Results on 24 molecules are retold here after patent publication US20110034466A1, “NOVEL FIVE-MEMBERED RING COMPOUND” (priority 2008, published 2011).

The melting point is the temperature of the solid-liquid transition. `CCNC(=O)NCCn1c(-c2ccc(C(=O)N3CCOCC3)cc2)cs/c1=N\c1cccc(F)c1` [Example 57] displayed a melting point of 172 to 177 °C.

In turn, `CNC(=O)NCCn1c(-c2ccc(CN3CCOCC3)c(C)c2)cs/c1=N\c1cccc(F)c1` [Example 27] displayed a melting point of 151 to 152 °C. Then `CNC(=O)NCCn1c(-c2ccc(CN3CCOCC3)cc2OC)cs/c1=N\c1cccc(F)c1F` [Example 30], with 161 to 165 °C; and `CCNC(=O)NCCn1c(-c2ccc(C(=O)N3CCOCC3)cc2)cs/c1=N\c1ccc(F)cc1F` [Example 54], with 179 to 180 °C; and `CNC(=O)NCCn1c(-c2ccc(CCN3CCOCC3)cc2)cs/c1=N\c1cccc(F)c1F` [Example 46], with 155 to 164 °C. In turn, `CCNC(=O)c1ccc(-c2cs/c(=N\c3cccc(Cl)c3)n2CCNC(=O)NC)cc1` [Example 63] displayed a melting point of 185 to 192 °C. On to `CCNC(=O)NCCn1c(-c2ccc(C(=O)N3CCOCC3)cc2)cs/c1=N\c1ccc(C)c(F)c1` [Example 55], for which the melting point lay within 175 to 178 °C. To `CNC(=O)NCCn1c(-c2ccc(CN3CCOCC3)cc2C)cs/c1=N\c1ccc(F)cc1F` [Example 25] belongs 154 to 160 °C; to `CNC(=O)NCCn1c(-c2ccc(CN3CCOCC3)cc2C)cs/c1=N\c1cccc(F)c1F` [Example 26], 132 to 135 °C; to `CNC(=O)NCCn1c(-c2ccc(CN3CCOCC3)c(OC)c2)cs/c1=N\c1cccc(F)c1` [Example 31], 170 to 174 °C. As for `CNC(=O)NCCn1c(-c2ccc(CN3CCOCC3)cc2OC)cs/c1=N\c1cccc(F)c1` [Example 28], the melting point is 163 to 166 °C. The molecule `CNC(=O)NCCn1c(-c2ccc(CN3CCOCC3)cc2OC)cs/c1=N\c1ccc(C)c(F)c1` [Example 29] displayed a melting point of 144 to 150 °C. Then `CCNC(=O)NCCn1c(-c2ccc(C(=O)N3CCOCC3)cc2)cs/c1=N\c1ccc(F)c(C)c1` [Example 58], with 196 to 203 °C; and `CCNC(=O)NCCn1c(-c2ccc(C(=O)N3CCOCC3)cc2)cs/c1=N\c1cccc(Cl)c1` [Example 56], with 182 to 186 °C. The molecule `CNC(=O)NCCn1c(-c2ccc(CN3CCOCC3)cc2C)cs/c1=N\c1ccc(F)cc1C` [Example 24] returned a melting point of 122 to 125 °C. `CNC(=O)NCCn1c(-c2ccc(CN3CCOCC3)c(OC)c2)cs/c1=N\c1cccc(F)c1F` [Example 32] gave a melting point of 150 to 153 °C. Turning to `CCNC(=O)c1ccc(-c2cs/c(=N\c3cccc(F)c3)n2CCNC(=O)NC)cc1` [Example 60], the melting point lay in the range of 170 to 176 °C. Then `CNC(=O)NCCn1c(-c2ccc(CN3CCOCC3)cc2C)cs/c1=N\c1cccc(F)c1` [Example 23], with 119 to 121 °C; and `CCNC(=O)NCCn1c(-c2ccc(C(=O)N3CCOCC3)cc2)cs/c1=N\c1ccc(F)c(C)c1` [Example 53], with 183 to 186 °C. To `CNC(=O)NCCn1c(-c2ccc(CCN3CCOCC3)cc2)cs/c1=N\c1ccc(F)cc1F` [Example 47] belongs 166 to 172 °C; to `CNC(=O)NCCn1c(-c2ccc(CN3CCOCC3)cc2C)cs/c1=N\c1ccc(C)c(F)c1` [Example 22], 171 to 174 °C. `CNC(=O)NCCn1c(-c2ccc(C(=O)NC3CC3)cc2)cs/c1=N\c1cccc(F)c1` [Example 64] registered a melting point of 179 to 185 °C. Then `CNC(=O)NCCn1c(-c2ccc(CN3CCOCC3)c(OC)c2)cs/c1=N\c1ccc(F)cc1F` [Example 33], with 164 to 169 °C; and `CNC(=O)NCCn1c(-c2ccc(CCN3CCOCC3)cc2)cs/c1=N\c1cccc(F)c1` [Example 45], with 154 to 160 °C.
